From publication PMC7486443, “Generation of Phenothiazine with Potent Anti-TLK1 Activity for Prostate Cancer Therapy” (iScience, 2020) come the findings set out here.

Some targets named below: CDKL1 (Homo sapiens, UniProt Q00532); PDPK1 (Homo sapiens, UniProt O15530); LIMK2 (Homo sapiens, UniProt P53671); MAST1 (Homo sapiens, UniProt Q9Y2H9); FLT3 (Homo sapiens, UniProt P36888); MYO3B (Homo sapiens, UniProt Q8WXR4); GSK3A (Homo sapiens, UniProt P49840); PRKCI (Homo sapiens, UniProt P41743); MAP3K15 (Homo sapiens, UniProt Q6ZN16); HASPIN (Homo sapiens, UniProt Q8TF76); CLK2 (Homo sapiens, UniProt P49760); PIK3CA(H1047Y) (Homo sapiens, UniProt P42336, H1047Y); CSNK1A1L (Homo sapiens, UniProt Q8N752).

Common to all, as to experiment: biochemical
What all share (set-up): DiscoverX KINOMEscan scanMAX competition binding panel, single concentration, percent of control; remaining binding: dose or concentration left out as unconfirmed
Holding throughout (conditions): KINOMEscan binding, percent of control; read-out: Table S4_SCANMAX REPORT - related to Fig. 1 / Percent Control

For another test, the target named is T1, TIE2 (Homo sapiens, UniProt Q02763).
T1 construct: gene TEK

The target in a further test is T2, OSR1 (Homo sapiens, UniProt O95747).
T2 construct: gene OXSR1

In test [1] the target is T3, ABL1(F317I)-phosphorylated (Homo sapiens, UniProt P00519, F317I).
T3 construct: phosphorylated

In test [2] the target is T4, RSK1(Kin.Dom.2-C-terminal) (Homo sapiens, UniProt Q15418).
T4 construct: gene RPS6KA1; Kin.Dom.2-C-terminal

Another test concerns the target T5, ERK1 (Homo sapiens, UniProt P27361).
T5 construct: gene MAPK3

Sequence of PIK3CA(H1047Y) (P42336 whole entry H1047Y): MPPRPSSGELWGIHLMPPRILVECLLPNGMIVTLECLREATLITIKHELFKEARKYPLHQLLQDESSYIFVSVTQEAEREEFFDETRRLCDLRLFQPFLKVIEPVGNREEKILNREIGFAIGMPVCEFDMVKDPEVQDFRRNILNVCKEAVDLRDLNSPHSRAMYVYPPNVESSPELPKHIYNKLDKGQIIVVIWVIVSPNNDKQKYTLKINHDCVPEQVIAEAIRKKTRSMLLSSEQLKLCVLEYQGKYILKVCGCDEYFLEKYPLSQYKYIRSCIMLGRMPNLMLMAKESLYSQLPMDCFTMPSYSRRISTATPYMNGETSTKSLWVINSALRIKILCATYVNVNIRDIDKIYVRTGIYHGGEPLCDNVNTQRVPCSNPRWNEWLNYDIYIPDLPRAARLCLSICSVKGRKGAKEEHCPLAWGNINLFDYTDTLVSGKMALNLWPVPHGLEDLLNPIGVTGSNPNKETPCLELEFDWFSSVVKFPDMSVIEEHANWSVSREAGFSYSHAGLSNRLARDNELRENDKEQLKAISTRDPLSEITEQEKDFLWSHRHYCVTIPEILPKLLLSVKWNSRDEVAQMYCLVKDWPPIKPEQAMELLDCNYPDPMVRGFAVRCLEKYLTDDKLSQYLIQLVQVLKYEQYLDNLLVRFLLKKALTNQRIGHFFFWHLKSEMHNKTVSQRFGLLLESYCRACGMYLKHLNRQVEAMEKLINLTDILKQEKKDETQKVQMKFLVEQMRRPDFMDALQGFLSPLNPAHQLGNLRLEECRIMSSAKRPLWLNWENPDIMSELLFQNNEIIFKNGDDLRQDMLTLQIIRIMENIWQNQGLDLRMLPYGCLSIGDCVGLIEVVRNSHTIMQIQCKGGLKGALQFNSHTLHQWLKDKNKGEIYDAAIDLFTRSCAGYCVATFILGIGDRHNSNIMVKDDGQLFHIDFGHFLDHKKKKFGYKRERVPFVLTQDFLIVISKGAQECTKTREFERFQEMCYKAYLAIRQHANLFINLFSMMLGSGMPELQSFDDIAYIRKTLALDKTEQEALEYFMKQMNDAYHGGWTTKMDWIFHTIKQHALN
Sequence of MAST1 (Q9Y2H9 whole entry): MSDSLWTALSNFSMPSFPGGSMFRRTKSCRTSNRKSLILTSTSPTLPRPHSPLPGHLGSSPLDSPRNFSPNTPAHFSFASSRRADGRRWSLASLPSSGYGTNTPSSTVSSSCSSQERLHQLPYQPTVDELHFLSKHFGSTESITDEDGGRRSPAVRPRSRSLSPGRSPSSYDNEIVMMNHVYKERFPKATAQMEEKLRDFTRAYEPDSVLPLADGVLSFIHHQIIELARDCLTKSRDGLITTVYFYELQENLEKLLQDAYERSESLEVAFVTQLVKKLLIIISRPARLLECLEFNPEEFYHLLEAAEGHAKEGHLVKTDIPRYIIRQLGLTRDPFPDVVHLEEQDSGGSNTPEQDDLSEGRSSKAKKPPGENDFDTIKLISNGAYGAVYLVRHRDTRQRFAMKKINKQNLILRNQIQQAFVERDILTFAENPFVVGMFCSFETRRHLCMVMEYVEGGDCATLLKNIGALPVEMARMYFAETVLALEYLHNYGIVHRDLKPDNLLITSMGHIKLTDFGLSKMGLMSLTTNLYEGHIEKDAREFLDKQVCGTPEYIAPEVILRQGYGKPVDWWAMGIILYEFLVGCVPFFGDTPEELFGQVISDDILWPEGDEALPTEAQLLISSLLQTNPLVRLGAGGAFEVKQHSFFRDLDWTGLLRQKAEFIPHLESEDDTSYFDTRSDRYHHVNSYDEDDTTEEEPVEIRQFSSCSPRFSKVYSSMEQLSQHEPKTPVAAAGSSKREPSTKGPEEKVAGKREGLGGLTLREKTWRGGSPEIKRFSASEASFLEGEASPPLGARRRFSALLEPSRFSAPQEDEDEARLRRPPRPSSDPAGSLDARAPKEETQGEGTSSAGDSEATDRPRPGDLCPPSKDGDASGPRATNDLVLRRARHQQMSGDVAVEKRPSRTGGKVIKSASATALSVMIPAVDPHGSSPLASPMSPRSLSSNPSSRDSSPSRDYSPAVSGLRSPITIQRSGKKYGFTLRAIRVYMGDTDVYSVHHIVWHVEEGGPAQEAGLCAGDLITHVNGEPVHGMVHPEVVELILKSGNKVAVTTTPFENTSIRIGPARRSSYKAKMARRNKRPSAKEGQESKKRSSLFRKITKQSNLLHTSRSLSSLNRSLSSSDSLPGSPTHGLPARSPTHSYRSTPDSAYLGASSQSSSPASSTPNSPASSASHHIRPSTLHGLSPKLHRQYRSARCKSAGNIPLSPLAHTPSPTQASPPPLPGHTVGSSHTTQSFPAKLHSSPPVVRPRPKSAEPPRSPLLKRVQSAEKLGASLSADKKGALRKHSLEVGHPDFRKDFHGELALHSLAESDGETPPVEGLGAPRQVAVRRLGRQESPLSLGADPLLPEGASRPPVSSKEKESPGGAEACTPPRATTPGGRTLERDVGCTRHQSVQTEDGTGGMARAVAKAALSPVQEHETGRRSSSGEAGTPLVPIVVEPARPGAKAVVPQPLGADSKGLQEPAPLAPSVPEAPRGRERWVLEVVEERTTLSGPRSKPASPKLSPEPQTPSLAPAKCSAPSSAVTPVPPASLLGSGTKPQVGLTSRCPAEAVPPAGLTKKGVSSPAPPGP
T1 sequence (Q02763 whole entry): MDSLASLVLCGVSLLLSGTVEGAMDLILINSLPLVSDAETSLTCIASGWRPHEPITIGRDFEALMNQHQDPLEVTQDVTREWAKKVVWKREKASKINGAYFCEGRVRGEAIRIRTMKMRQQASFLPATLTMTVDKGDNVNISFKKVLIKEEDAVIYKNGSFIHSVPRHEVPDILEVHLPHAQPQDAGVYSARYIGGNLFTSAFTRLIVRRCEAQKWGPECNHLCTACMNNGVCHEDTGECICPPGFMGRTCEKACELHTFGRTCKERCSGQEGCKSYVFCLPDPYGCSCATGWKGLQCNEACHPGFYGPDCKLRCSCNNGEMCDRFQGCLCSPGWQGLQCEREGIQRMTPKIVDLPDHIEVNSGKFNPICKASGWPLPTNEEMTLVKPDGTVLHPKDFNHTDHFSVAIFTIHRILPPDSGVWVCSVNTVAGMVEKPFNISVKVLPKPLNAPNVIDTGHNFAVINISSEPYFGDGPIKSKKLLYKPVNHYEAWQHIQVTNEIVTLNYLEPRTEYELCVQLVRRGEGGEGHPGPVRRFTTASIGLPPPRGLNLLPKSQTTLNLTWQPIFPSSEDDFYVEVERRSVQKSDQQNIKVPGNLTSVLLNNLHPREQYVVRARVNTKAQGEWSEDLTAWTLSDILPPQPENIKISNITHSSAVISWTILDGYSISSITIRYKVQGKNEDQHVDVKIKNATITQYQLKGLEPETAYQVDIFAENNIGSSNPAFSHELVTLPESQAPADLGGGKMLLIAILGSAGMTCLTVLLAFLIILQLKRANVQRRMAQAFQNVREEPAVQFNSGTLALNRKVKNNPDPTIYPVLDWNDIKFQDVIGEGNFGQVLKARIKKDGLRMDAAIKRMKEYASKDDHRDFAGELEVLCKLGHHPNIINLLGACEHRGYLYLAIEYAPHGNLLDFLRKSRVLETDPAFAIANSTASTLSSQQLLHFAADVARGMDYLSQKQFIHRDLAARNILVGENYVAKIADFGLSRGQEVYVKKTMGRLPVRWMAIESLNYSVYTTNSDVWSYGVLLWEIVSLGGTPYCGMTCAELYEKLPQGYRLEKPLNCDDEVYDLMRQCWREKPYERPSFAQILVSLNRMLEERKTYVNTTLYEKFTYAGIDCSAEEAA
T4 sequence (Q15418 whole entry): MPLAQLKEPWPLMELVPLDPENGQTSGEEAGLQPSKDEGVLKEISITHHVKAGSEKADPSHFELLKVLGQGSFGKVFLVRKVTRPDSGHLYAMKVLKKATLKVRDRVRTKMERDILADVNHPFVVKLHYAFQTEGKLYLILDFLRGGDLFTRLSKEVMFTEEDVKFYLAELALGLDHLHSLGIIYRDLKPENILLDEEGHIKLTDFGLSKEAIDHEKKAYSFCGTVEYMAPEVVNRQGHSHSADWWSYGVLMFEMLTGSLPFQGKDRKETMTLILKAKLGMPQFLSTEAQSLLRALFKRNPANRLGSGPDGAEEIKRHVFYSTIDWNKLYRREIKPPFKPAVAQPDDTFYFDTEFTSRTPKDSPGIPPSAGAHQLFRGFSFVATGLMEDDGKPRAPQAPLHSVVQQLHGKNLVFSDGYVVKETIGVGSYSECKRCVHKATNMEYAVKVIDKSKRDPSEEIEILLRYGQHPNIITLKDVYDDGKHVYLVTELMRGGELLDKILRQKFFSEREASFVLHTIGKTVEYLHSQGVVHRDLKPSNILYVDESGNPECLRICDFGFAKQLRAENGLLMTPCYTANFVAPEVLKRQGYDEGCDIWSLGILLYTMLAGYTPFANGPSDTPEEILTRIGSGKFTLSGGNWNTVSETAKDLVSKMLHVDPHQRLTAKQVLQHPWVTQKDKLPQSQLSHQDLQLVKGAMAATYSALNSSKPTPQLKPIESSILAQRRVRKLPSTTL
T5 sequence (P27361 whole entry): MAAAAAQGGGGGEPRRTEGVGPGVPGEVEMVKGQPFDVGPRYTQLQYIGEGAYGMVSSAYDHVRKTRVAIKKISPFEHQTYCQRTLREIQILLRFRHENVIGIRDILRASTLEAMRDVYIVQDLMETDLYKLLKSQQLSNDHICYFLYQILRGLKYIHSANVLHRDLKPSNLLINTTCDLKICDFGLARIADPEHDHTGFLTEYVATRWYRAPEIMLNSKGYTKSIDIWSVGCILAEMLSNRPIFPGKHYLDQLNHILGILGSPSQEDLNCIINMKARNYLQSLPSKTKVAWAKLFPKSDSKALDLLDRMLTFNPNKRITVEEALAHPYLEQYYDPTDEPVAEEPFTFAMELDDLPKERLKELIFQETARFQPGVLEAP

On to `c1ccc2c(c1)Sc1ccccc1N2CCN1CCOCC1` [J54], for which the remaining binding came to 79% on CDKL1; 92% on PDPK1; 100% at LIMK2; 76% at TIE2; 100% on MAST1; 100% on FLT3. Further, the remaining binding at MYO3B was 100%; on OSR1 it was 100%; at GSK3A, 80%; on PRKCI it was 98%; in test [1], 100%; at MAP3K15, 100%. Besides, the remaining binding worked out at 94% at HASPIN; 79% at CLK2; 86% on PIK3CA(H1047Y); 100% in test [2]; 100% on CSNK1A1L; 100% on ERK1.
